In paper PMC9100673, “Acridine Based N-Acylhydrazone Derivatives as Potential Anticancer Agents: Synthesis, Characterization and ctDNA/HSA Spectroscopic Binding Properties” (Molecules, 2022):

What was measured:
[1] = molecular target: T1, human serum albumin (HSA) (Homo sapiens, UniProt P02768); assay: HSA competitive site-marker experiment, reverse titration with 3a; format: binding; settings: for KSV / Kb: 25 °C
T1 construct: purchased Sigma (St. Louis, MO, USA)
Protocol: Displacement experiments were performed using warfarin and ibuprofen as site marker fluorescence probes, as these agents have been proven to bind with HSA at Sudlow sites I and II, respectively. The fluorescence quenching spectra of HSA:acridine derivatives […] (Figure 5) in the presence of increasing concentrations of specific site markers, warfarin or ibuprofen, were studied.
In addition to the spectra assays, reverse titration studies were also performed. The intensity of the fluorescence of the HSA:site marker complex was recorded at increasing concentrations of acridine derivative 3a, with the obtained results given in Figure S7. […] The obtained data were analysed using Equations (3) and (4). The linear Stern-Volmer dependence and dependence log(F0 − F)/F = log[Q] was used to obtain Stern-Volmer quenching constant values (KSV) and apparent binding constant values (Kb). […] A marked change in the quenching constant was also observed after the addition of ibuprofen, a result which could be partly due to the interaction between derivative 3a and ibuprofen. Similar changes and associated interactions between the marker and the studied ligand have been observed in other studies in which competitive experiments were conducted.
Competitive experiments of HSA were performed using warfarin and ibuprofen as standard site marker ligands. The selected markers for the site I were warfarin, whereas site II was probed using ibuprofen. HSA-acridine derivative (3a–3d) complexes at a concentration ratio of 1:1 ([HSA] = 4 μM) were titrated into specific side markers (0–20 μM). The molar ratio of the HSA:marker complexes were 1:0.5, 1:1, 1:1.5, 1:2, 1:2.5, 1:3, 1:3.5, 1:4, 1:4.5 and 1:5. The reaction mixture of the HSA-acridine derivatives complexes with the side markers were preincubated for 15 min prior to spectral measurements. Additionally, a reverse titration competitive experiment was performed for derivative 3a. The site probe-HSA complex (1:1, [HSA] = 4 μM) was titrated with derivative 3a at a concentration gradient of 0.6–6 μM. In order to determine the binding site of compound 3a, the fluorescence quenching data were analysed using Stern-Volmer and modified Stern-Volmer equations to calculate the value of the Stern-Volmer constants (KSV) and binding constants Kb, and to determine the number of binding sites n. All spectra measurements were performed at 280 nm excitation wavelength and the slits were set at 5 nm for excitation and 10 nm for emission spectra at a range of 290–550 nm and at 25 °C.

[2] = system: calf thymus DNA (ctDNA); assay: UV-Vis absorption titration with ctDNA (Benesi-Hildebrand); format: binding; settings: Tris-HCl pH 7.4, room temperature
Description: Changes in absorbance intensity (either hyperchromic or hypochromic) and a shift in the peak position (hypsochromicity or batochromicity) are typical spectral properties closely related to the interaction of a drug with DNA [60, 61]. […] The absorption spectra of compounds 3a–3d in the presence of increasing concentrations of ctDNA show hypochromicity (16–51%) and a slight hypsochromic shift (Δλ = 1–9 nm, 3a–3d), findings which indicate that the acridine derivatives have interacted with DNA (Table 3). […]
The binding constant Kb of compounds 3a–3d was determined using the modified Benesi-Hildebrand Equation (6):(6) A0/A−A0=εB/εB + DNA+εB/εB + DNA × 1/KbDNA, where A0 and A are the absorbances of the acridine derivatives in the absence and presence of ctDNA; εB and εB + DNA are the molar extinction coefficients of the acridine derivatives individually and in the bound complex, respectively; Kb is the binding constant; and [DNA] is the concentration of ctDNA. […]
UV-Vis absorption spectrum of the drug-ctDNA complexes were measured on a Varian Cary 100 Bio UV-Vis Spectrophotometer. The UV-Vis spectra of free compounds 3a–3d and drug-ctDNA complexes were recorded at the wavelength range of 220 to 600 nm. […]

[3] = in the presence of ibuprofen (HSA:marker 1:1)
[4] = in the presence of warfarin (HSA:marker 1:1)

T1 sequence (P02768 25-609): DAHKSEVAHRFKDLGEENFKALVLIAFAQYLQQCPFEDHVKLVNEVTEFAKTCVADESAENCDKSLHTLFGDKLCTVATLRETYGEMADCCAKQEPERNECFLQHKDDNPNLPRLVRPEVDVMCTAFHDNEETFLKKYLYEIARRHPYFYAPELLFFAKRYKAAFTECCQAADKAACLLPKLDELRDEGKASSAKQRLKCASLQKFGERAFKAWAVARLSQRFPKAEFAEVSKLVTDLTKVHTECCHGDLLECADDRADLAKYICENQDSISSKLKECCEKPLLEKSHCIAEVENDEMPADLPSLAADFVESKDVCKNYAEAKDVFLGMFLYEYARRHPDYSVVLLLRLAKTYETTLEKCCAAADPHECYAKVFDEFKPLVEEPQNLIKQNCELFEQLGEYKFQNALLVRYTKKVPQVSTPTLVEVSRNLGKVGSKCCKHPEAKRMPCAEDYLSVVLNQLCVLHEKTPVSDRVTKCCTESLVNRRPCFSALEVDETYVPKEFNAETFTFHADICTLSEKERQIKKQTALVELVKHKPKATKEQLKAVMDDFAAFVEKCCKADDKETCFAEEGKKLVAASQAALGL

binding site on HSA ([1]; competition with warfarin and ibuprofen) | KSV [1, 3] | Kb [1, 3] | KSV [1, 4] | Kb [1, 4] | SMILES | Kb, binding constant with ctDNA [2]
Sudlow site I | 328000 M⁻¹ | 667000 M⁻¹ | 226000 M⁻¹ | 254000 M⁻¹ | O=C(N/N=C/c1cccc2cc3ccccc3nc12)c1ccccc1 [3a, N′-[(E)-(Acridin-4-yl)methylidene]benzohydrazide] | 
 |  |  |  |  | O=C(N/N=C/c1cccc2cc3ccccc3nc12)c1ccc(F)cc1 [3b, N′-[(E)-Acridin-4-ylmethylidene]-4-fluorobenzohydrazide] | 3180 M⁻¹
